We go through three compounds from patent US10183011B2, “Anti-depression compounds” (Board of Regents of the University of Texas System, priority 2009, dated 2019).

One assay has as its system G93A-SOD1 mutant mice. The experiment in a line: Accelerating rotarod test in G93A-SOD1 mice, treatment from day 80. The settings on record: 20 mg/kg/day i.p. from day 80. Type of assay: in vivo, mouse. On the procedure: FIG. 35. P7C3A20 preserves performance in the accelerating rotarod test when administered at the time of disease onset to G93A-SOD1 mutant mice. Treatment of G93A-SOD1 mutant mice with 20 mg/kg/d of P7C3A20, P7C3 or Dimebon, or the appropriate vehicle, was initiated on day 80, with 20 mice per group. All compounds were administered at 20 mg/kg/day i.p. in divided doses. […] Only sibling pairs were analyzed at each time point. By week 16, there were 13 compound-vehicle pairs remaining in each group. […] All testing and analysis was performed blind to treatment group.
Having observed evidence of compound-mediated protection of spinal cord motor neurons, we next sought to determine whether motor performance might also be protected in these mice. Motor performance was monitored by the accelerating rotarod task standardly employed for evaluation of rodent models of ALS. We again initiated administration of P7C3, P7C3A20 or Dimebon on day 80, at 20 mg/kg/day, starting with no less than 20 mice per treatment group. Each animal in each group had its own sibling-matched vehicle control, and testing was conducted blind to treatment group. Rotarod training was initiated on day 50 for 2 days, and repeated weekly testing was conducted every 7 days thereafter. Each mouse was subjected to four trials of 600 seconds each, with a 20 minute recovery break between each trial. The latency time to fall was averaged across all 4 trials.
Beginning on day 50, mice were trained on the accelerating rotarod using Colombia Instruments Rotamex-5. Training consisted of mice being placed on a rotarod moving at 5 rpm for 300 seconds. Mice were trained to stay on the rotarod for the entire 300 seconds. If a mouse fell, it was placed back on the rotarod and the 300 second trial was started again. Training took place on two consecutive days. On day 52, mice ran their first full rotarod test, as described in Current Protocols for Neuroscience. The rotarod began at 4 rpm and accelerated to 40 rpm over 600 seconds, increasing by 1.25 rpm every 20 seconds. The time to fall was automatically recorded. […]

Assay [1] concerns newborn hippocampal neurons. The experiment in a line: 30 day BrdU pulse-chase survival assay of newborn hippocampal neurons, dose response. It is filed as in vivo, mouse (C57 Bl/6). The note with it: for increase in survival of newborn neurons: 5 mg/kg/day i.p. for 30 days; for neuroprotective efficacy (increase in survival of newborn neurons): 10 mg/kg/day i.p. for 30 days; for ceiling of efficacy (CoE), increase in survival: 20 or 40 mg/kg/day i.p. for 30 days. On the procedure: FIG. 28. Neuroprotective efficacy of P7C3, P7C3A20 and Dimebon for newborn neurons in the adult hippocampus. Test compounds were evaluated by dose response assay for their ability to block normal apoptotic cell death of newborn neural precursor cells in the adult dentate gyrus. […] P7C3 is intermediate in both measures. 6 animals were tested per group. Dosing is expressed as total mg/day, and compounds were administered intraperitoneally in divided doses twice daily. Data are expressed as mean±SEM. Values for P7C3 and P7C3A20 were compared to those of vehicle (VEH), and values for Dimebon were compared to those of saline (SAL).
In order to more carefully compare the neuroprotective efficacy of these compounds in abetting hippocampal neurogenesis, we conducted dose-response studies in a 30 day BrdU pulse-chase survival assay (FIG. 28). Briefly, newborn cells were labeled with a single intraperitoneal (i.p.) injection of BrdU (150 mg/kg), followed by daily treatment with the three test compounds beginning the following day. After 30 days of compound administration, mice were transcardially perfused with 4% paraformaldehyde, brains were dissected, and immunohistochemical detection of BrdU followed by standard microscopic imaging and normalization for dentate gyrus volume was used to quantify the number of surviving cells.
Because both social activity and voluntary exercise enhance hippocampal neurogenesis, mice were individually housed without access to running wheels throughout the entire procedure, beginning one week prior to bromodeoxyuridine (BrdU, Sigma-Aldrich) labeling of newborn cells. Throughout the study, mice had ad libitum access to food and water. BrdU was injected intraperitoneally at 150 mg/kg i.p., and 24 hours later administration of test compounds or vehicle was initiated. P7C3 and P7C3A20 were dissolved in 5% dextrose (pH 7.0) with 2.5% DMSO and 10% Cremaphor EL (Sigma, C5135). Dimebon was dissolved in normal saline. Compounds were compared to their respective controls, and were tested at 2.5, 5, 10 and 20 mg/kg twice daily (i.p.) for 30 days. The injection site was alternated between right and left sides. Each group consisted of six 12-week-old adult male C57 Bl/6 mice. Animals were monitored daily for general health and weight loss. Cage changes were performed per routine scheduling. After 30 days of compound administration, mice were sacrificed by transcardial perfusion with 4% paraformaldehyde at pH 7.4, and their brains were processed for immunohistochemical detection of incorporated BrdU in the dentate gyrus. Dissected brains were immersed in 4% paraformaldehyde overnight at 4 degrees Celsius, then cryoprotected in sucrose before being sectioned with a Leica SM2000R sliding microtome coronally into […] thick free-floating sections. Unmasking of BrdU antigen was achieved through incubating tissue sections for two hours in 50% formamide/2×SSC at 65 degrees Celsius, followed by five minute wash in 2×SSC and subsequent incubation for thirty minutes in 2M HCl at 37 degrees Celsius. Sections were processed for immunohistochemical staining with mouse monoclonal anti-BrdU (1:100, Roche). Diaminobenzidine was used as a chromagen, and tissue was counter-stained with hematoxylin to aid in visualization of the neuroanatomy. Images were analyzed with a Nikon Eclipse 90i motorized research microscope with Plan Apo lenses coupled with Metamorph Image Acquisition software (Nikon). Quantification of all staining was done blind to treatment group. The number of BrdU+ cells in the entire dentate gyrus was quantified by counting BrdU+ cells within the dentate gyrus in every fifth section throughout the entire hippocampus and then normalizing for dentate gyrus volume.

For `OC(CNc1ccccc1)Cn1c2ccc(Br)cc2c2cc(Br)ccc21` (stereo not drawn) [Example P7C3], the accelerating rotarod performance entry with G93A-SOD1 mutant mice is “insufficiently active to preserve motor function”. In addition, in assay [1], the “increase in survival of newborn neurons” value is reported as “neither P7C3 nor Dimebon exhibited any effect”; the “neuroprotective efficacy (increase in survival of newborn neurons)” value stood at 65%; the “ceiling of efficacy (CoE), increase in survival” value is recorded as “≈ 130%”.
Regarding `Cc1ccc2c(c1)c1c(n2CCc2ccc(C)nc2)CCN(C)C1` [Dimebon, 2,3,4,5-Tetrahydro-2,8-dimethyl-5-(2-(6-methyl-3-pyridyl)ethyl)-1H-pyrido(4,3-b)indole, reference compound], the accelerating rotarod performance entry with G93A-SOD1 mutant mice is listed as “insufficiently active to preserve motor function”. In assay [1], the “increase in survival of newborn neurons” value is recorded as “neither P7C3 nor Dimebon exhibited any effect”; the “neuroprotective efficacy (increase in survival of newborn neurons)” value was 15%; the “ceiling of efficacy (CoE), increase in survival” value is “≈ 30%”.
On the same counts, the results for `COc1cccc(NCC(F)Cn2c3ccc(Br)cc3c3cc(Br)ccc32)c1` (stereo not drawn) [Example P7C3A20, N-(3-(3,6-dibromo-9H-carbazol-9-yl)-2-fluoropropyl)-3-methoxyaniline] are “showed significantly better performance”, roughly 100%, “about 175%” and “≈ 230%”.
